Experimental data as given in patent publication US20160361314A1, “COMBINATION OF AN ALK INHIBITOR AND A CDK INHIBITOR FOR THE TREATMENT OF CELL PROLIFERATIVE DISEASES” (NOVARTIS AG, priority 2013, published 2016).
“Also recorded” adds a separate entry of the source.

How the values were obtained:
Assay type in all cases: cell-based
[1] = system: NLF human neuroblastoma cells; test: Loewe additivity (CHALICE) synergy screen, CellTiter-Glo viability, 7x7 dose matrix; design: key to Max Combo Effect: growth inhibition scale; 100 = stasis; settings: NLF (WT)
Experimental: (§1) The synergistic interaction of drug combinations were assessed based on the Loewe Additivity Model using Chalice software [CombinatoRx, Cambridge Mass.]). […] 27:659-66. The software compares the response (% inhibition or % reduction of cell viability) of drug treatment from a combination of two agents to the response of the agents acting alone, against the drug-with-itself dose-additive reference model (the Loewe Additivity Model). Deviations from dose additives can be assessed numerically with a “synergy score” which quantifies the overall strength of combination effect. A synergy score >0 indicates a synergistic combination. In order to ensure only strongly synergistic combinations were selected, the acceptance criteria were set at a higher level. Strongly synergistic combinations were defined as having both a synergy score >2, a synergy score that is twice as large as the background (non-synergy) model would predict, and a maximum efficacy of >100, a value equivalent to stasis, as determined from the growth inhibition calculation.
(§2) After treatment, cell viabilty (quantity of viable cells) for each test mixtures were determined by the CellTiter-Glo® (CTG) luminescent cell viability assay (Promega) described in the Assay section, infra. […] The response to treatment (% reduction of cell viability) was analyzed using Chalice software [CombinatoRx, Cambridge Mass.]). Data evaluation and graph generation were performed using Microsoft Excel software and Chalice software.
(§3) The combinations were tested in duplicate using a 7×7 dose matrix block in 1536 well format with a cell proliferation readout as described in the Assay section infra.
(§4) All synergy calculations were performed using CHALICE software package from Zalicus and potential synergistic interactions between compound combinations were assessed using the Excess Inhibition 2D matrix according to the Loewe additivity model and were reported as synergy score (Table 10) (Lehar et al). Strongly synergistic combination were identified as having both (1) a synergy score greater than 2, a synergy score that is twice as large as the background (non-synergy) model would predict, and (2) a maximum efficacy of >100, a value roughly equivalent to stasis, as determined from the growth inhibition calculation.
(§5) Cell viability were determined by measuring cellular ATP content using the CellTiter-Glo® (CTG) luminescent cell viability assay (Promega). […] Reduced and enhanced luminescent signal values (responses) were calculated relative to untreated (control) cells, and the calculated signal value proportional to the cell viability.
(§6) Synergistic combinations were identified based on the Loewe Addivity Model. To measure the effects of drug combinations on the cell viability, cells from the 20 cell lines listed in Table 1 above were seeded into 1536-well assay plates at a density 300 cells per well in a 7 μL final volume and incubated at 37° C. overnight in a GNF Systems incubator with 95% RH and 5% CO2.
(§7) A six-point dose response curve for the test compounds were prepared in a 384 well ECHO compatible source plate (Labcyte P-05525) with 3-fold serial dilution series. For example, for a six-point dose response curve and a top compound concentration of 5 mM, the concentration of the compounds in the source well were 5 mM, 1.67 mM, 0.56 mM, 0.19 mM, 0.06 mM and 0.02 mM.
(§8) Approximately 18 hours after plating, compound combinations were generated on the fly by transferring 7.5 nL of compound from the pre-diluted source plates using the Labcyte ECHO555 integrated onto the ACP-1 system with replicate plates per cell line; the final DMSO concentration per well was 0.2%. It is noted that the total volume in the wells was 7 μL.
(§9) The well at the intersection of the first column and first row which received no compound was dosed with 2×7.5 nL of DMSO and served as control.

[2] = system: SK-N-BE(2) human neuroblastoma cells; test: as above; design: key to Max Combo Effect: growth inhibition scale; 100 = stasis; settings: SK-N-BE(2) (WT)
Experimental: as §1, §2, §3, §4, §5, §6, §7, §8, §9

[3] = system: SH-SY5Y human neuroblastoma cells; test: as above; design: key to Max Combo Effect: growth inhibition scale; 100 = stasis; settings: SH-SY5Y (F1174L)
Experimental: as §1, §2, §3, §4, §5, §6, §7, §8, §9

[4] = system: CHP-134 human neuroblastoma cells; test: as above; design: key to Max Combo Effect: growth inhibition scale; 100 = stasis; settings: for Max Combo Effect: in % (unit assumed)
Experimental: as §1, §2, §3, §4, §5, §6, §7, §8, §9

[5] = system: LAN-5 human neuroblastoma cells; test: as above; design: key to Max Combo Effect: growth inhibition scale; 100 = stasis; settings: LAN-5 (R1275Q)
Experimental: as §1, §2, §3, §4, §5, §6, §7, §8, §9

[6] = system: NB-1 human neuroblastoma cells; test: as above; design: key to Max Combo Effect: growth inhibition scale; 100 = stasis; settings: for Max Combo Effect: in % (unit assumed)
Experimental: as §1, §2, §3, §4, §5, §6, §7, §8, §9

[7] = system: panel of human neuroblastoma cell lines (ALK mutant and wild type); test: Loewe additivity (CHALICE) synergy screen, results over the whole panel; settings: for Mean of synergy scores over the cell lines / Median of synergy scores over the cell lines: 15 cell lines of Table 2; for Single-agent efficacy over the panel (self-cross scatter plots): Example A, FIGS. 4A, 4B, 15 cell lines; for Efficacy and synergy over the panel (scatter plots): Example G, FIG. 21, 16 cell lines
Experimental: as §1, §2
The statistical variation of the synergy scores tabulated in Tables 2 and 3 were graphically illustrated by a Box Plot (FIG. 3). […] The ALK×ALK and CDK4/6×CDK4/6 combination is moderately sygergistic with synergy score at 1.011 (sd=0.4) and 1.16 (sd=0.43), respectively. In ALK normal cells, the combinations and the self-cross treatments were not sygeristic with synergistic score of about 0.5, but similarly large standard deviations.
For visual identification for strongly synergistic compositions, the data in Tables 2 and 3 were presented in scatter plots (FIGS. 4 A-C) where maximum combination efficacy were plotted against the synergy scores. Only data from two of the three ALK inhibitors, compounds A1 and A2 were included. In a scatter plot, a vertical shift implies additive effect; a right shift implies synergistic interactions and a diagonal shift implies synergy with a boost in efficacy. Synergistic combination hits are those in the upper right quadrant where the synergy score is >2 and the maximum efficacy is >100.
as §3, §4, §5
(§10) Synergistic combinations were identified based on the Loewe Addivity Model.

[8] = system: LAN-1 human neuroblastoma cells; test: Loewe additivity (CHALICE) synergy screen, CellTiter-Glo viability, 7x7 dose matrix; design: key to Synergy score (Mean): Loewe excess inhibition synergy score; >0 synergistic; key to Max Combo Effect: growth inhibition scale; 100 = stasis; settings: LAN-1 (F1174L)
Experimental: as §1, §2
The % inhibition (reduction in cell viability) by the drug treatments were recorded in the block In the dose matrix (left); the single agent treatment at the far left column and the bottom row, and the combinations in the remaining 6x6 combination blocks. The differences between the data in the dose matrix and the expected inhibition value generated by the Loewe model were reported in the Loewe Excess matrix. In this Excess Inhibition matrix, synergy is defined as values>0; that is inhibition greater than what would be expected from a simple additive interaction. Antagonism is defined as values<0; that is inhibition […] than what would be expected from a simple additive interaction. The synergy score for the drug treatments were computed taken into account of the entire 6×6 combination blocks within the matrix.
as §3, §4, §5, §10

SMILES | Max Combo Effect ([1]; Table 2) | Synergy score (Mean) ([1]; Table 2) | Max Combo Effect ([2]; Table 2) | Synergy score (Mean) ([2]; Table 2) | Max Combo Effect ([3]; Table 2) | Synergy score (Mean) ([3]; Table 2) | Synergy score (Mean) ([4]; CHP-134 (ALK WT), Table 2) | Max Combo Effect ([4]; CHP-134 (ALK WT), Table 2) | Max Combo Effect ([5]; Table 2) | Synergy score (Mean) ([5]; Table 2) | Synergy score (Mean) ([6]; NB-1 (WT Amp), Table 2) | Max Combo Effect ([6]; NB-1 (WT Amp), Table 2) | Mean of synergy scores over the cell lines [7] | Single-agent efficacy over the panel (self-cross scatter plots) [7] | Max Combo Effect ([1]; Table 3) | Synergy score (Mean) ([1]; Table 3) | Max Combo Effect ([2]; Table 3) | Synergy score (Mean) ([2]; Table 3) | Synergy score (Mean) ([4]; CHP-134 (WT), Table 3) | Max Combo Effect ([4]; CHP-134 (WT), Table 3) | also measured
Cc1cc(Nc2ncc(Cl)c(Nc3ccccc3S(=O)(=O)C(C)C)n2)c(OC(C)C)cc1C1CCNCC1 [Compound A1, 5-chloro-N2-(2-isopropoxy-5-methyl-4-(piperidin-4-yl)phenyl)-N4-[2-(propane-2-sulfonyl)-phenyl]-pyrimidine-2,4-diamine] | 27.1 | 0.152 | 25.2 | 0.246 | 91.5 | 0.638 | 0.223 | 26.1 | 166.1 | 1.731 | 1.607 | 181.9 | 0.841 | preferential single-agent efficacy for the ALK disease cell lines over the ALK normal cell lines | – | – | – | – | – | – | Median of synergy scores over the cell lines [7]: 0.884; Efficacy and synergy over the panel (scatter plots) [7]: preferential single agent efficacy for the ALK Disease subset of cell lines over the ALK WT cell lines; Max Combo Effect ([8]; Table 2): 114.2; Synergy score (Mean) ([8]; Table 2, listed as Cmpd A1 Self Cross): 1.011; Synergy score (Mean) ([8]; Table 2, listed as Cpd A1×A1): 1.01
C[C@@H](Oc1cc(-c2cnn(C3CCNCC3)c2)cnc1N)c1c(Cl)ccc(F)c1Cl [Compound A3, (R)-3-(1-(2,6-dichloro-3-fluorophenyl)ethoxy)-5-(1-(piperidin-4-yl)-1H-pyrazol-4-yl)pyridin-2-amine, reference compound] | – | – | – | – | – | – | – | – | – | – | – | – | – | – | 29.10 | 0.08 | 10.76 | 0.02 | 0.02 | 10.05 | Max Combo Effect ([3]; Table 3): 141.61; Synergy score (Mean) ([3]; Table 3): 0.98; Max Combo Effect ([8]; Table 3): 77.73; Synergy score (Mean) ([8]; Table 3): 0.63
Cc1cc(Nc2nc(Nc3ccccc3S(=O)(=O)C(C)C)c3cn[nH]c3n2)c(OC(C)C)cc1C1CCN(C)CC1 [Compound A2, N6-(2-isopropoxy-5-methyl-4-(1-methylpiperidin-4-yl)phenyl)-N4-(2-(isopropylsulfonyl)phenyl)-1H-pyrazolo[3,4-d]pyrimidine-4,6-diamine] | – | – | – | – | – | – | – | – | – | – | – | – | – | preferential single-agent efficacy for the ALK disease cell lines over the ALK normal cell lines | 183.68 | 0.63 | 177.26 | 0.47 | 0.10 | 180.10 | Max Combo Effect ([5]; Table 3): 196.81; Synergy score (Mean) ([5]; Table 3): 0.87; Synergy score (Mean) ([6]; NB-1 (WT_Amp), Table 3): identified as synergistic; Max Combo Effect ([6]; NB-1 (WT_Amp), Table 3): 193.34; Synergy score (Mean) ([6]; NB-1 (WT_Amp), Table 3, listed as Cmpd A2 Self Cross): 2.97
CN(C)C(=O)c1cc2cnc(Nc3ccc(N4CCNCC4)cn3)nc2n1C1CCCC1 [Compound B, 7-cyclopentyl-N,N-dimethyl-2-((5-(piperazin-1-yl)pyridin-2-yl)amino)-7H-pyrrolo[2,3-d]pyrimidine-6-carboxamide] | 43.9 | 0.122 | 75.2 | 0.628 | 86.8 | 0.811 | 0.388 | 52.3 | 99.2 | 1.161 | 1.429 | 111.0 | 0.757 | single-agent efficacy (>100) in two disease cell lines and one normal cell line; also recorded: minimal single agent efficacy or synergy | 45.7 | 0.54 | 93.3 | 1.41 | 0.35 | 48.76 | Max Combo Effect ([3]; Table 3): 35.3; Synergy score (Mean) ([3]; Table 3): 0.09; Max Combo Effect ([5]; Table 3): 73.59; Synergy score (Mean) ([5]; Table 3): 0.57; Synergy score (Mean) ([6]; NB-1 (WT_Amp), Table 3): 0.34; Max Combo Effect ([6]; NB-1 (WT_Amp), Table 3): 40.57; Median of synergy scores over the cell lines [7]: 0.788; Efficacy and synergy over the panel (scatter plots) [7]: no single agent efficacy in any of the cell lines tested; Max Combo Effect ([8]; Table 2): 142.3; Max Combo Effect ([8]; Table 3): 62.78; Synergy score (Mean) ([8]; Table 3): 0.25
